Values after ≈ are worked out from the molar mass of the structure shown. Like-named read-outs stand apart in the source and are kept apart here.
How the values were obtained:
[1] = test system: C. albicans; test: Agar well diffusion assay (antifungal); assay type: cell-based; conditions: result in words
Description: The agar well diffusion assay was first done to evaluate the antimicrobial activities of the different target compounds (4a–j) against gram-positive bacteria, gram-negative bacteria, and fungi (Table 1A). […] First, the antibacterial activities were tested against S. aureus ATCC 6538, Acientobacter (A. baumanii) ATCC 19606, S. typhi, E. coli, and P. aeruginosa as examples of the most common gram-positive and gram-negative bacteria, in comparison to vancomycin and ceftriaxone as two reference standards. In addition, the antifungal activities were screened against C. albicans, in comparison to amphotericin as a reference standard. […] The antibacterial activities of some tested compounds (4a, 4b, 4h, and 4e) against gram-positive and gram-negative bacteria by agar well diffusion assay are represented in the supplementary data (Figure SI1).
(§1) In vitro evaluation for antifungal activities regarding target compounds (4a–j) as well as reference drug, was done against C. albicans MTCC183 through the zone inhibition technique using well diffusion agar assay in addition to MIC.
A modification of the agar well diffusion method[55] was done to detect the antimicrobial activities of different compounds (4a–j) against gram-positive bacteria, gram-negative bacteria, and fungi. […] The zones of inhibition were measured in cm.

[2] = test system: S. typhi clinical isolate; test: Minimal inhibitory concentration (MIC), broth dilution; assay type: cell-based; conditions: Salmonella enterica, TYPHI
[3] = test system: C. albicans MTCC183; test: as above; assay type: cell-based; conditions: Candida albicans, MTCC183
From the text: as §1

[4] = test system: E. faecalis, Acientobacter, P. auriginosa, S. aureus, S. typhi, E. coli, C. albicans; test: Average MIC over the nine tested microbial species (SAR); assay type: cell-based; conditions: for antimicrobial activity (SAR grading): based on MIC average values; for MIC: read-out: Average MIC
From the text: Herein, we aimed to study the structure-antimicrobial activity relationship of the newly synthesised N'-benzylidene-3,4-dimethoxybenzohydrazide derivatives based on MIC average values[51]^,[52] as represented in the supplementary data (Table SI1). Thereby, the changes in their antimicrobial potential and spectrum upon structural modifications could be unveiled, thus offering clues for structural changes that are capable of increasing the antimicrobial potential.

[5] = test system: C. albicans; test: Minimal bactericidal concentration (MBC); assay type: cell-based; conditions: Candida albicans
Description: (§2) After determining the MIC for the target compounds, the minimal bactericidal concentration (MBC) for each compound that is required to kill each one of the above-mentioned microorganisms was assessed.

[6] = test system: E. coli; test: Minimal bactericidal concentration (MBC); assay type: cell-based; conditions: Escherichia coli
Description: as §2

[7] = test system: E. faecalis; test: Minimal bactericidal concentration (MBC); assay type: cell-based; conditions: Enterococcus faecalis
Description: as §2

[8] = test system: S. aureus; test: Minimal bactericidal concentration (MBC); assay type: cell-based; conditions: Staphylococcus aureus
Description: as §2

[9] = test system: Aciento sensitive; test: Minimal bactericidal concentration (MBC); assay type: cell-based, A. baumanii; conditions: Acinetobacter baumannii
Description: as §2

[10] = test system: P. Auriginosa; test: Minimal bactericidal concentration (MBC); assay type: cell-based, P. aeruginosa; conditions: Pseudomonas aeruginosa
Description: as §2

[11] = test system: S. typhi; test: Minimal bactericidal concentration (MBC); assay type: cell-based; conditions: Salmonella enterica
[12] = Cytotoxicity on cells using MTT assay; assay type: cell-based; conditions: African green monkey, Vero cells (normal mammalian cell line)
Description: The newly synthesised compounds were looked deeply into their efficacy using in silico, in vitro, and in vivo approaches. On the other hand, the cytotoxicity assay was performed for the tested compounds using a normal mammalian Vero cell line by the MTT assay[31]^,[32].
Moreover, the cytotoxicity values of the target compounds were determined to calculate their corresponding IC50 values through the MTT assay. The IC50 value indicates the compound’s concentration that is required to inhibit 50% of the target cells.
The MTT (3–(4,5-dimethylthiazol-2-yl)-2,5-diphenyltetrazolium bromide) tetrazolium reduction assay protocol was applied to determine the cytotoxicity of the target compounds (4a–j) on cells.

[13] = test system: E. faecalis ATCC 29212; test: Minimal inhibitory concentration (MIC), broth dilution; conditions: Enterococcus faecalis, ATCC29212
[14] = test system: A. baumanii ATCC 19606; test: as above; conditions: Acinetobacter baumannii, ATCC19606
[15] = test system: Acientobacter sensitive; test: as above; conditions: Acinetobacter baumannii
[16] = test system: Aciento MDR; test: as above; conditions: Acinetobacter baumannii
[17] = test system: P. aeruginosa ATCC10145; test: as above; conditions: Pseudomonas aeruginosa
[18] = test system: S. aureus ATCC 6538; test: as above; conditions: Staphylococcus aureus, ATCC6538
[19] = test system: E. coli ATCC 25922; test: as above; conditions: Escherichia coli
[20] = test system: A. baumanii; test: Minimal bactericidal concentration (MBC); assay type: cell-based; conditions: Acinetobacter baumannii
Description: as §2

Row | SMILES | MIC [2] [µM] | MIC [3] [µM] | antimicrobial activity (SAR grading) [4] | MIC [4] [µM] | MBC [6] [µM] | MBC [7] [µM] | MBC [8] [µM] | MBC [9] [µM] | MBC [10] [µM] | MBC [11] [µM] | MIC [13] [µM] | MIC [14] [µM] | MIC [15] [µM] | MIC [16] [µM] | MIC ([17]; ATCC10145) [µM] | MIC [18] [µM] | MIC ([19]; ATCC25922) [µM] | also measured
1 | COc1ccc(C(=O)NN=Cc2ccc(N)cc2)cc1OC [Compound 4a, N'-(4-aminobenzylidene)-3,4-dimethoxybenzohydrazide] | 52.1 (≈ 15.6 µg/mL) | 26.1 (≈ 7.82 µg/mL) | high antimicrobial activity | 58 (≈ 17.4 µg/mL) | 105 (≈ 31.3 µg/mL) | 105 (≈ 31.3 µg/mL) | 105 (≈ 31.3 µg/mL) | 105 (≈ 31.3 µg/mL) | 105 (≈ 31.3 µg/mL) | 105 (≈ 31.3 µg/mL) | 52.1 (≈ 15.6 µg/mL) | 105 (≈ 31.3 µg/mL) | 52.1 (≈ 15.6 µg/mL) | 105 (≈ 31.3 µg/mL) | 52.1 (≈ 15.6 µg/mL) | 26.1 (≈ 7.82 µg/mL) | 52.1 (≈ 15.6 µg/mL) | zones of inhibition (antifungal activity) [1]: best antifungal activity; MBC [5]: 105 µM (≈ 31.3 µg/mL); IC50 [12]: 407 µM
2 | CCOc1ccc(C=NNC(=O)c2ccc(OC)c(OC)c2)cc1 [Compound 4b, N'-(4-ethoxybenzylidene)-3,4-dimethoxybenzohydrazide] | 23.8 (≈ 7.82 µg/mL) | 95.4 (≈ 31.3 µg/mL) | weakest antimicrobial activity | 140 (≈ 46 µg/mL) | – | – | – | – | 95.4 (≈ 31.3 µg/mL) | 95.4 (≈ 31.3 µg/mL) | 381 (≈ 125 µg/mL) | 190 (≈ 62.6 µg/mL) | 47.5 (≈ 15.6 µg/mL) | 381 (≈ 125 µg/mL) | 23.8 (≈ 7.82 µg/mL) | 95.4 (≈ 31.3 µg/mL) | 23.8 (≈ 7.82 µg/mL) | MIC ([2]; 24 h): 23.3 µM (≈ 7.64 µg/mL); MIC ([17]; ATCC10145, 24 h): 23.3 µM (≈ 7.64 µg/mL); MIC ([19]; ATCC25922, 24 h): 23.3 µM (≈ 7.64 µg/mL)
3 | COc1ccc(C(=O)NN=Cc2ccc(NC(C)=O)cc2)cc1OC [Compound 4c, N-(4-((2–(3,4-dimethoxybenzoyl)hydrazono)methyl)phenyl)acetamide] | 183 (≈ 62.5 µg/mL) | 91.8 (≈ 31.3 µg/mL) | moderate antimicrobial potential | 81.4 (≈ 27.8 µg/mL) | – | 91.8 (≈ 31.3 µg/mL) | 91.8 (≈ 31.3 µg/mL) | – | – | – | 45.7 (≈ 15.6 µg/mL) | 91.8 (≈ 31.3 µg/mL) | 45.7 (≈ 15.6 µg/mL) | 183 (≈ 62.5 µg/mL) | 22.9 (≈ 7.81 µg/mL) | 45.7 (≈ 15.6 µg/mL) | 22.9 (≈ 7.81 µg/mL) | –
4 | COc1ccc(C(=O)NN=Cc2c(C)cc(C)cc2C)cc1OC [Compound 4d, N'-(2,4,6-trimethylbenzylidene)-3,4-dimethoxybenzohydrazide] | 96 (≈ 31.3 µg/mL) | 192 (≈ 62.5 µg/mL) | weakest antimicrobial activity | 149 (≈ 48.7 µg/mL) | 192 (≈ 62.5 µg/mL) | 192 (≈ 62.5 µg/mL) | 192 (≈ 62.5 µg/mL) | – | – | 192 (≈ 62.5 µg/mL) | 96 (≈ 31.3 µg/mL) | 192 (≈ 62.5 µg/mL) | 192 (≈ 62.5 µg/mL) | 383 (≈ 125 µg/mL) | 96 (≈ 31.3 µg/mL) | 47.8 (≈ 15.6 µg/mL) | 47.8 (≈ 15.6 µg/mL) | –
5 | COc1ccc(C(=O)NN=Cc2cc(Br)cc(Br)c2O)cc1OC [Compound 4e, N'-(3,5-dibromo-2-hydroxybenzylidene)-3,4-dimethoxybenzohydrazide] | 68.7 (≈ 31.4 µg/mL) | – | moderate antimicrobial activity | 72.4 (≈ 33.2 µg/mL) | 68.7 (≈ 31.4 µg/mL) | – | – | 68.7 (≈ 31.4 µg/mL) | – | – | 137 (≈ 62.8 µg/mL) | 34.2 (≈ 15.7 µg/mL) | 17.1 (≈ 7.85 µg/mL) | 137 (≈ 62.8 µg/mL) | 68.7 (≈ 31.4 µg/mL) | 34.2 (≈ 15.7 µg/mL) | 17.1 (≈ 7.85 µg/mL) | MIC ([3]; C. albicans (CA), read-out: MIC): 137 µM (≈ 62.8 µg/mL)
6 | COc1ccc(C(=O)NN=Cc2cc(Cl)cc(Cl)c2O)cc1OC [Compound 4f, N'-(3,5-dichloro-2-hydroxybenzylidene)-3,4-dimethoxybenzohydrazide] | 85 (≈ 31.4 µg/mL) | 85 (≈ 31.4 µg/mL) | moderate antimicrobial activity | 73.2 (≈ 27 µg/mL) | – | – | – | 85 (≈ 31.4 µg/mL) | – | – | 42.4 (≈ 15.7 µg/mL) | 42.4 (≈ 15.7 µg/mL) | 21.2 (≈ 7.83 µg/mL) | 85 (≈ 31.4 µg/mL) | 85 (≈ 31.4 µg/mL) | 170 (≈ 62.7 µg/mL) | 42.4 (≈ 15.7 µg/mL) | IC50 [12]: 2160 µM
7 | COc1ccc(C(=O)NN=Cc2cc(C(C)(C)C)cc(C(C)(C)C)c2O)cc1OC [Compound 4g, N'-(3,5-di-tert-butyl-2-hydroxybenzylidene)-3,4-dimethoxybenzohydrazide] | 37.8 (≈ 15.6 µg/mL) | 37.8 (≈ 15.6 µg/mL) | moderate antimicrobial activity | 73.7 (≈ 30.4 µg/mL) | – | 75.9 (≈ 31.3 µg/mL) | – | 75.9 (≈ 31.3 µg/mL) | – | 75.9 (≈ 31.3 µg/mL) | 18.9 (≈ 7.82 µg/mL) | 75.9 (≈ 31.3 µg/mL) | 37.8 (≈ 15.6 µg/mL) | 152 (≈ 62.5 µg/mL) | 75.9 (≈ 31.3 µg/mL) | 152 (≈ 62.5 µg/mL) | 75.9 (≈ 31.3 µg/mL) | –
8 | CCCCCCCCCCCCOc1ccc(C=NNC(=O)c2ccc(OC)c(OC)c2)cc1 [Compound 4j, N'-(4-(dodecyloxy)benzylidene)-3,4-dimethoxybenzohydrazide] | 33.3 (≈ 15.6 µg/mL) | 267 (≈ 125 µg/mL) | moderate antimicrobial activity | 74.2 (≈ 34.7 µg/mL) | – | 33.3 (≈ 15.6 µg/mL) | – | 66.8 (≈ 31.3 µg/mL) | – | 66.8 (≈ 31.3 µg/mL) | 16.7 (≈ 7.82 µg/mL) | 16.7 (≈ 7.82 µg/mL) | 33.3 (≈ 15.6 µg/mL) | 134 (≈ 62.6 µg/mL) | 33.3 (≈ 15.6 µg/mL) | 66.8 (≈ 31.3 µg/mL) | 66.8 (≈ 31.3 µg/mL) | MBC [20]: 66.8 µM (≈ 31.3 µg/mL)
9 | CO/N=C(\C(=O)N[C@@H]1C(=O)N2C(C(=O)O)=C(CSc3nc(=O)c(=O)[nH]n3C)CS[C@H]12)c1csc(N)n1 [ceftriaxone, reference compound] | 14.1 (≈ 7.81 µg/mL) | – | – | – | 113 (≈ 62.5 µg/mL) | – | – | 113 (≈ 62.5 µg/mL) | 225 (≈ 125 µg/mL) | 225 (≈ 125 µg/mL) | – | – | 14.1 (≈ 7.81 µg/mL) | – | – | 3.52 (≈ 1.95 µg/mL) | – | MBC [20]: 113 µM (≈ 62.5 µg/mL)
